What all share (assay): DTP human tumour cell line panel, 48 h
The subject of assay [1] is EKVX NSCLC.
The test system of assay [2] is NCI-H226 lung.
The test system of assay [3] is OVCAR-5 ovarian.
The test system of assay [4] is SF-539 CNS.
In assay [5] the test system is SK-MEL-2 melanoma.
Assay [6] relates to SK-MEL-28 melanoma.
The subject of assay [7] is SNB-75 CNS.
Assay [8] deals with U251 CNS.
Assay [9] deals with MDA-MB-231 breast.
Assay [10] relates to MDA-MB-435.
The subject of assay [11] is RPMI-8226 leukemia.

By TGI is commonly meant the concentration giving total growth inhibition.

The structures appear in SMILES notation.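 Cells were grown in 96-well plates and exposed to each compound for 48 hours at five concentrations; endpoints were interpolated linearly between bracketing concentrations, or set to the highest concentration if not reached. TGI is the concentration that stops growth completely.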 Where a SMILES comes first, the peptide text is derived from it. [ ]: non-standard residue; d: D form. The star is where a group is joined. ξ: configuration not given here. NMeF = CN[CH](Cc1ccccc1)C(=O)O; ξNMe2Val = CC(C)C(C(=O)*)N(C)C; NMeV = CN[CH](C(=O)O)C(C)C; ξNMeV = CNC(C(=O)O)C(C)C; Boc = CC(C)(C)OC(=O)*; OBn = c1ccc(CO*)cc1; OtBu = CC(C)(C)O*

As for `COc1ccc([C@H]2CC3C(=O)N(c4ccc(OC)cc4)C(=O)C3c3[nH]c4ccccc4c32)cc1` (some centres undefined), the TGI is > 100 µM in assay [1]; > 100 µM in [2]; > 100 µM in assay [3]; 51.6 µM in assay [4]; > 100 µM in [5]; > 100 µM in assay [6]. Besides, the TGI was 83.7 µM in assay [7] and > 100 µM in [8].

Consider `O=c1[nH]cnc2c1cnn2Cc1cnnn1COCCO`, for which the TGI is > 100 µM in assay [1]; > 100 µM in [9]; 90.5 µM in assay [10]; > 100 µM in assay [2]; > 100 µM in assay [3]; > 100 µM in assay [4]. Besides, the TGI in assay [5], in assay [6], in assay [7] and in [8] was > 100 µM each time.

Consider `CN(C)CCC[N+]1=Nc2cccc3cccc(c23)N1`, for which the TGI is > 100 µM in [1]; > 100 µM in assay [2]; > 100 µM in [3]; 47.3 µM in assay [11]; > 100 µM in assay [4]; > 100 µM in assay [5]. Further, the TGI in [6], in assay [7] and in assay [8] was > 100 µM in each case.

Take `CC(C)C(C(=O)N(C)[C@H](C(=O)N1CCC[C@H]1C(=O)N(C)[C@@H](Cc1ccccc1)C(=O)OCc1ccccc1)C(C)C)N(C)C(=O)[C@@H](NC(=O)OC(C)(C)C)C(C)C` (some centres undefined) (Boc-V[ξNMeV][NMeV]P[NMeF]-OBn): the concentration for total growth inhibition (TGI) in assay [1] is > 31.6 µM; in assay [2], > 100 µM; in assay [3], > 31.6 µM; in assay [11], > 31.6 µM; in [4], > 31.6 µM; in assay [5], > 31.6 µM. For the same compound, the concentration for total growth inhibition (TGI) is > 31.6 µM in [6], > 100 µM in [7] and > 31.6 µM in assay [8].

On to `Brc1ccc(-c2cc3c(cc2C2SCCS2)OCO3)cc1`, for which the TGI in assay [1] is 75.1 µM; in assay [2], 40.3 µM; in assay [3], > 100 µM; in assay [4], 39.1 µM; in assay [5] it was > 100 µM; in [6] it was > 100 µM. In addition, the TGI in assay [7] is 39.9 µM; in [8], > 100 µM.

For `O=C(NC1=C(Cl)C(=O)c2ccccc2C1=O)C(=O)C(C(=O)c1ccc2ccccc2c1)C1OC(=O)c2ccccc21` (centres undefined), the TGI was 24.7 µM in assay [1]; 3.33 µM in [10]; 7.09 µM in assay [2]; 27.5 µM in [3]; 26.2 µM in [11]; 9.66 µM in assay [4]. In addition, the TGI was found to be 19.1 µM in assay [5], 14.5 µM in assay [6], 13.6 µM in assay [7] and 18.5 µM in assay [8].

Regarding `CN(C)CCCn1c(Cn2nc3ccccc3n2)nc2cc(C(F)(F)F)ccc21`, the TGI was > 100 µM in [1]; > 100 µM in assay [9]; 33 µM in assay [10]; > 100 µM in assay [2]; > 100 µM in [3]; 43.5 µM in [5]. The total growth inhibition concentration (TGI) in [6] is 34.6 µM; in [8], > 100 µM.

With `Cc1nn2c(c1C#N)NNc1c-2sc(=N)nnc1=O`, the TGI in [1], in assay [3], in [11], in assay [4], in [6] and in assay [8] was > 100 µM in each case.

With `Cc1cc(C)c2c(n1)S(=O)(=O)N(CCCN1CCN(c3cccc(Cl)c3)CC1)/C(=C(\O)c1ccc(Br)cc1)C2=O`, the TGI in assay [1] is 57 µM; in assay [9], > 100 µM; in [10], 78.8 µM; in assay [3], > 100 µM; in [4] it was 95.6 µM; in assay [5], 69.4 µM. Further, the figures for the TGI in assay [6], in assay [7] and in [8] were > 100 µM, 28.3 µM and > 100 µM, respectively.

Turning to `O=S(=O)(c1ccccc1)c1ccc(-c2nc(-c3ccc4c(c3)Sc3ccccc3S4)cs2)cc1`, the TGI in [1], in [9], in assay [10], in [2], in assay [3] and in assay [11] was > 100 µM throughout. For the same compound, the TGI was > 100 µM in assay [4], 25.3 µM in assay [7] and > 100 µM in [8].

As for `O=C1CN(c2cccc(C(F)(F)F)c2)C(=O)CN1CCN1CC(=O)N(c2cccc(C(F)(F)F)c2)CC1=O`, the TGI in assay [1], in [9], in assay [10], in [3], in [11] and in assay [4] was > 100 µM in each case. Besides, the TGI in [6], in assay [7] and in [8] was > 100 µM throughout.

Regarding `CC(C)C(C(=O)N(C)C(Cc1ccccc1)C(=O)N(C)C(C(=O)N(C)C(C(=O)N1CCCC1C(=O)OC(C)(C)C)C(C)C)C(C)C)N(C)C` (centres undefined) (ξNMe2Val-[NMeF][NMeV][NMeV]P-OtBu; configuration not given here), the TGI in [1], in [2], in assay [11] and in assay [4] was > 100 µM in each case.

Consider `CCCCCCCCCCCC[N+]12CC[N+](C)(CC1)CC2`, for which the TGI in assay [1] was > 100 µM; in assay [2], 66.5 µM; in assay [3] it was 41 µM; in assay [11], 41.7 µM; in assay [4], > 100 µM; in assay [5], > 100 µM. Further, the results for the TGI in assay [6], in assay [7] and in assay [8] were > 100 µM, 37.1 µM and 29.9 µM, respectively.

Consider `N#COc1ccc(Oc2ccc(OC#N)cc2)cc1`, for which the TGI in assay [1], in assay [2], in [3], in assay [11], in assay [4] and in assay [5] was > 100 µM each time. Besides, the concentration for total growth inhibition (TGI) in assay [6], in assay [7] and in assay [8] was > 100 µM each time.

As to `CSC(C1c2ccccc2N(C)c2[nH]c(=O)n(C)c(=O)c21)S(=O)(=O)c1ccc(C)cc1` (centres undefined), the TGI in assay [1], in [2], in assay [3], in assay [4], in assay [5] and in [6] was > 100 µM in each case. Also, the total growth inhibition concentration (TGI) in assay [7] and in assay [8] was > 100 µM in each case.

As for `CC(=O)OCC1OC(N=[N+]=[N-])C(OC(C)=O)C(OC(C)=O)C1OC1OC(COC(C)=O)C(OC(C)=O)C(OC(C)=O)C1OC(C)=O` (centres undefined), the TGI in [1], in assay [3], in assay [11], in assay [4], in assay [5] and in assay [6] was > 100 µM throughout. Moreover, the figures for the TGI in assay [7] and in assay [8] were 60.8 µM and > 100 µM, respectively.

Regarding `CCSc1nc(N/N=C/c2cccs2)c2cnn(CO)c2n1`, the TGI in assay [1] was 25.6 µM; in assay [9], 54.8 µM; in assay [10], 18.9 µM; in assay [2], 9.09 µM; in [3] it was 27 µM; in assay [4], 26 µM. The TGI is 24.4 µM in [5], 29.3 µM in assay [6], 28.7 µM in assay [7] and 30.1 µM in assay [8].

`CCN(C(=O)N[C@H](C(=O)N[C@@H](CSC)C(=O)N[C@@H](C)C(=O)OC)C(C)C)c1ccccc1`: the TGI stood at 28.7 µM in assay [1]; 29 µM in [9]; 27.8 µM in assay [10]; 31.8 µM in [2]; 29.5 µM in [3]; 39.2 µM in assay [4]. Moreover, the TGI came out at 37.8 µM in assay [5], 28.7 µM in assay [6], 27.8 µM in assay [7] and 29.4 µM in [8].

Regarding `COC(=O)c1ccccc1C1CN=NC12Cc1ccc3c(c1C2=O)CCC3` (centres undefined), the total growth inhibition concentration (TGI) in assay [1], in [9], in assay [10], in assay [2], in assay [3] and in [4] was > 100 µM each time. For the same compound, the TGI in assay [5], in [6], in [7] and in assay [8] was > 100 µM each time.

With `CCO/C(O)=c1/s/c(=C(\C#N)c2nc3ccccc3[nH]2)n(-c2ccccc2)c1=N`, the TGI in assay [1], in assay [2], in [3], in assay [4], in assay [5] and in [6] was > 100 µM each time. Further, the TGI in assay [7] and in [8] was > 100 µM in each case.

On to `COC(=O)C(CCC1(C)OCCO1)=[N+]=[N-]`, for which the TGI in assay [1], in [2], in assay [3], in [4], in [5] and in assay [6] was > 100 µM throughout. The concentration for total growth inhibition (TGI) in [7] and in [8] was > 100 µM in each case.

On to `Cc1ccc(NC(=O)C2C3CCC(O3)C2C(=O)O)cc1` (centres undefined), for which the TGI in [1] was > 100 µM; in assay [2] it was > 100 µM; in assay [3], > 100 µM; in assay [11] it was > 68.8 µM; in assay [4] it was > 100 µM; in [5], > 100 µM. Also, the TGI in assay [6], in assay [7] and in assay [8] was > 100 µM throughout.

Consider `O=c1[nH]c2ccc(CC(=S)N3CCOCC3)cc2o1`, for which the TGI in assay [1], in assay [9], in assay [10], in assay [2], in [3] and in assay [4] was > 100 µM throughout. For the same compound, the concentration for total growth inhibition (TGI) in assay [5], in [6], in [7] and in [8] was > 100 µM each time.

Take `CCCCCCCCCCCCOC1C(COCCN2CCCCC2)OC2OC(C)(C)OC21` (centres undefined): the TGI in assay [9] is 3.43 µM; in assay [10], 3.17 µM; in [2], 17.6 µM; in assay [3] it was 4.23 µM; in assay [4], 3.18 µM; in assay [5], 3.14 µM. In addition, the TGI in assay [6] came to 3.25 µM; in assay [8], 3.48 µM.

Take `O=S(=O)(/N=C(\NO)Nc1ccc(Cl)cc1)c1cc2ccccc2s1`: the TGI in [1] was found to be 26 µM; in assay [9], 34.8 µM; in assay [10], 36.9 µM; in assay [2], 33.2 µM; in assay [3], 29.5 µM; in assay [4], 40.2 µM. Further, the TGI in [5] worked out at 30.4 µM; in assay [6], 39.6 µM; in [7], 29.8 µM; in assay [8], 29.1 µM.

On to `COc1ccc(-c2nnc3n(C)c4ccccc4n3c2=O)cc1`, for which the TGI in assay [1] was > 100 µM; in assay [9] it was 56.2 µM; in assay [10], > 100 µM; in [2] it was > 100 µM; in [3], > 100 µM; in assay [4] it was > 100 µM. Also, the concentration for total growth inhibition (TGI) in assay [5] was > 100 µM; in assay [6] it was > 100 µM; in assay [7], 60.4 µM; in [8] it was 84.9 µM.

In the case of `COc1cc(S(=O)(=O)Nc2ccc(-c3csc(N4C(=O)CSC4c4ccccc4O)n3)cc2)ccc1Cl` (centres undefined), the total growth inhibition concentration (TGI) is 85.5 µM in assay [1]; > 100 µM in [10]; > 100 µM in assay [2]; > 100 µM in [3]; > 100 µM in assay [11]; > 100 µM in [4]. In addition, the TGI is > 100 µM in assay [5], 88.2 µM in assay [6] and 92.2 µM in [7].

For the compound `C=C(C)CCC1C=[N+]([O-])OC(C)(C)C1(C)C` (centres undefined), the TGI in assay [1], in assay [9], in assay [10], in [2], in assay [3] and in [11] was > 100 µM in each case. The TGI in assay [4], in [7] and in [8] was > 100 µM each time.

Source of the values: PubChem BioAssay (NCI).
